Results from the supplement of paper PMC11061612.

Experiments:
Experiment in all cases: combination Emax (second highest fraction inhibited in the dose matrix, 72 h); higher = more inhibition; extreme values may be limits of the assay
[1] = tested on: ATN-1 (T-Lymphoblastic Leukemia)
Summary of the method: (§1)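 After 24 hours at 37°C and 5% CO2 in 1536-well plates, cells in DMEM/F12 or RPMI plus 10% FBS received two-drug dose matrices for 72 hours. Viability came from CellTiter-Glo 2.0 luminescence and was scaled as inhibition, anchored at 0 by vehicle wells and at 1 by blank wells. Combination Emax is taken as the second-highest inhibition in the matrix, and Bliss excess as the observed combination effect less EA + EB − EA·EB, with EA and EB the single-agent effects.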

[2] = tested on: BC-1 (B-Cell Non-Hodgkin's Lymphoma)
Summary of the method: as §1

[3] = tested on: BT-474 (Breast Carcinoma)
Summary of the method: as §1

[4] = tested on: C2BBe1 (Colorectal Carcinoma)
Summary of the method: as §1

[5] = tested on: COR-L105 (Lung Adenocarcinoma)
Summary of the method: as §1

GCIY (Gastric Carcinoma) = tested on: GCIY (Gastric Carcinoma)
Summary of the method: as §1

[6] = tested on: GRANTA-519 (B-Cell Non-Hodgkin's Lymphoma)
Summary of the method: as §1

[7] = tested on: HT-1197 (Bladder Carcinoma)
Summary of the method: as §1

[8] = tested on: HT-3 (Cervical Carcinoma)
Summary of the method: as §1

[9] = tested on: MDA-MB-175-VII (Breast Carcinoma)
Summary of the method: as §1

[10] = tested on: MRK-nu-1 (Breast Carcinoma)
Summary of the method: as §1

[11] = tested on: NCI-H1048 (Small Cell Lung Carcinoma)
Summary of the method: as §1

[12] = tested on: NCI-H1435 (Non-Small Cell Lung Carcinoma)
Summary of the method: as §1

[13] = tested on: NCI-H1648 (Lung Adenocarcinoma)
Summary of the method: as §1

[14] = tested on: NCI-H1975 (Lung Adenocarcinoma)
Summary of the method: as §1

[15] = tested on: NCI-H2170 (Squamous Cell Lung Carcinoma)
Summary of the method: as §1

[16] = tested on: OCI-M1 (Acute Myeloid Leukemia)
Summary of the method: as §1

[17] = tested on: SBC-3 (Small Cell Lung Carcinoma)
Summary of the method: as §1

[18] = tested on: SBC-5 (Small Cell Lung Carcinoma)
Summary of the method: as §1

[19] = tested on: SW1463 (Colorectal Carcinoma)
Summary of the method: as §1

Row | Structure (SMILES) | combination Emax [1] | combination Emax [2] | combination Emax [3] | combination Emax [4] | combination Emax [5] | combination Emax (GCIY (Gastric Carcinoma)) | combination Emax [6] | combination Emax [7] | combination Emax [8] | combination Emax [9] | combination Emax [10] | combination Emax [11] | combination Emax [12] | combination Emax [13] | combination Emax [14] | combination Emax [15] | combination Emax [16] | combination Emax [17] | combination Emax [18] | combination Emax [19]
1 | COc1cccc(OCCCN)c1-c1cc(Nc2cnc(C#N)cn2)n[nH]1 [Prexasertib] + CCc1c2c(nc3ccc(O)cc13)-c1cc3c(c(=O)n1C2)COC(=O)[C@]3(O)CC [SN-38] (first compound max 1 µM, 7x7, partner max 0.3 µM) | 0.999 | 0.997 | 0.244 | 0.708 | 0.488 | 0.929 | 1 | 0.543 | 0.933 | 0.547 | 0.84 | 1 | 0.481 | 0.962 | 0.861 | 0.956 | 1 | 0.957 | 0.997 | 0.741
2 | CC1(C)CCC(CN2CCN(c3ccc(C(=O)NS(=O)(=O)c4ccc(NCC5CCOCC5)c([N+](=O)[O-])c4)c(Oc4cnc5[nH]ccc5c4)c3)CC2)=C(c2ccc(Cl)cc2)C1 [Venetoclax] + C=CCn1c(=O)c2cnc(Nc3ccc(N4CCN(C)CC4)cc3)nc2n1-c1cccc(C(C)(C)O)n1 [AZD1775] (first compound max 1 µM, partner max 1 µM) | 0.977 | 1 | 0.516 | 0.39 | 0.372 | 0.824 | 1 | 0.487 | 0.191 | 0.444 | 0.294 | 0.92 | 0.35 | 0.595 | 0.393 | 0.652 | 0.912 | 0.899 | 0.459 | 0.36
3 | Cc1c2c(nn1C)CSCc1cc(n(C)n1)CSc1cc(c3ccccc3c1)OCCCc1c(C(=O)O)n(C)c3c-2c(Cl)ccc13 [AZD5991] + C1CN(CCC1(C(=O)N[C@@H](CCO)C2=CC=C(C=C2)Cl)N)C3=NC=NC4=C3C=CN4 [Capivasertib] (first compound max 1 µM, 7x7, partner max 3 µM) | 0.989 | 1 | 0.746 | 0.251 | 0.248 | 0.36 | 0.0859 | 0.419 | 0.307 | 0.488 | 1 | 1 | 0.179 | 0.906 | 0.623 | 0.415 | 0.115 | 0.334 | 0.471 | 0.216
4 | Cc1c2c(nn1C)CSCc1cc(n(C)n1)CSc1cc(c3ccccc3c1)OCCCc1c(C(=O)O)n(C)c3c-2c(Cl)ccc13 [AZD5991] + CC1(C)CCC(CN2CCN(c3ccc(C(=O)NS(=O)(=O)c4ccc(NCC5CCOCC5)c([N+](=O)[O-])c4)c(Oc4cnc5[nH]ccc5c4)c3)CC2)=C(c2ccc(Cl)cc2)C1 [Venetoclax] (first compound max 1 µM, 7x7, partner max 1 µM) | 0.968 | 1 | 0.351 | 0.23 | 0.181 | 0.343 | 0.472 | 0.148 | 0.597 | 0.152 | 1 | 0.954 | 0.206 | 0.748 | 0.378 | 0.237 | 0.175 | 0.69 | 0.231 | 0.131
5 | Cc1c2c(nn1C)CSCc1cc(n(C)n1)CSc1cc(c3ccccc3c1)OCCCc1c(C(=O)O)n(C)c3c-2c(Cl)ccc13 [AZD5991] + CCN(CCO)CCCOc1ccc2c(Nc3cc(CC(=O)Nc4cccc(F)c4)[nH]n3)ncnc2c1 [AZD2811] (first compound max 1 µM, 7x7, partner max 1 µM) | 0.976 | 1 | 0.442 | 0.277 | 0.262 | 0.449 | 0.464 | 0.2 | 0.907 | 0.288 | 1 | 1 | 0.313 | 0.748 | 0.485 | 0.655 | 0.285 | 0.531 | 0.78 | 0.268
6 | NC1(C(=O)N[C@@H](CCO)c2ccc(Cl)cc2)CCN(c2ncnc3[nH]ccc23)CC1 [Capivasertib] + C[C@@H]1COCCN1C2=NC(=NC(=C2)C3(CC3)[S@](=N)(=O)C)C4=C5C=CNC5=NC=C4 [AZD6738] (first compound max 10 µM, 7x7, partner max 10 µM) | 0.965 | 0.94 | 0.406 | 0.445 | 0.501 | 0.751 | 0.892 | 0.491 | 0.575 | 0.683 | 0.605 | 0.667 | 0.26 | 0.746 | 0.669 | 0.809 | 0.985 | 0.69 | 0.7 | 0.42
7 | Cn1cnc2c(F)c(Nc3ccc(Br)cc3Cl)c(C(=O)NOCCO)cc21 [Selumetinib] + C[C@@H]1COCCN1C2=NC(=NC(=C2)C3(CC3)[S@](=N)(=O)C)C4=C5C=CNC5=NC=C4 [AZD6738] (first compound max 10 µM, 7x7, partner max 10 µM) | 0.97 | 0.923 | 0.0449 | 0.569 | 0.483 | 0.704 | 0.909 | 0.422 | 0.54 | 0.432 | 0.413 | 0.67 | 0.114 | 0.752 | 0.496 | 0.618 | 0.984 | 0.656 | 0.814 | 0.643
8 | NC1(C(=O)N[C@@H](CCO)c2ccc(Cl)cc2)CCN(c2ncnc3[nH]ccc23)CC1 [Capivasertib] + COc1nnc2ccc(N3CCC(c4ccc(OCCN5CCN(C)C(=O)[C@H]5C)cc4)CC3)nn12 [AZD5153] (first compound max 10 µM, 7x7, partner max 1 µM) | 0.654 | 0.977 | 0.416 | 0.405 | 0.381 | 0.735 | 0.317 | 0.759 | 0.308 | 0.571 | 0.587 | 0.71 | 0.248 | 0.753 | 0.652 | 0.594 | 1 | 0.744 | 0.563 | 0.521
9 | CC1(C)CCC(CN2CCN(c3ccc(C(=O)NS(=O)(=O)c4ccc(NCC5CCOCC5)c([N+](=O)[O-])c4)c(Oc4cnc5[nH]ccc5c4)c3)CC2)=C(c2ccc(Cl)cc2)C1 [Venetoclax] + C[C@@H](Nc1cc(F)cc(F)c1)c1cc(C(=O)N(C)C)cc2c(=O)cc(N3CCOCC3)oc12 [AZD8186] (first compound max 1 µM, 7x7, partner max 3 µM) | 0.616 | 0.264 | 0.163 | 0.318 | 0.24 | 0.641 | 0.437 | 0.126 | 0.0586 | 0.315 | 0.175 | 0.504 | 0.203 | 0.454 | 0.22 | 0.166 | 0.0849 | 0.507 | 0.163 | 0.152
10 | COc1cccc(OCCCN)c1-c1cc(Nc2cnc(C#N)cn2)n[nH]1 [Prexasertib] + C[C@@H]1COCCN1C2=NC(=NC(=C2)C3(CC3)[S@](=N)(=O)C)C4=C5C=CNC5=NC=C4 [AZD6738] (first compound max 1 µM, 7x7, partner max 10 µM) | 1 | 0.996 | 0.133 | 0.556 | 0.473 | 0.911 | 0.856 | 0.603 | 0.679 | 0.398 | 0.746 | 0.694 | 0.283 | 0.847 | 0.426 | 0.847 | 0.956 | 0.762 | 0.938 | 0.704
11 | CN(C)CCCOc1ccc(-c2ccc3ncc4c(c3c2)n(C2CCOCC2)c(=O)n4C)cn1 [AZD0156] + CCN(CCO)CCCOc1ccc2c(Nc3cc(CC(=O)Nc4cccc(F)c4)[nH]n3)ncnc2c1 [AZD2811] (first compound max 1 µM, 7x7, partner max 1 µM) | 0.835 | 0.752 | 0.0605 | 0.114 | 0.167 | 0.378 | 0.364 | 0.203 | 0.0658 | 0.208 | 0.631 | 0.547 | 0.101 | 0.214 | 0.3 | 0.656 | 0.222 | 0.409 | 0.313 | 0.108
12 | C[C@@H]1COCCN1c1cc(C2([S@](C)(=N)=O)CC2)nc(-c2ccnc3[nH]ccc23)n1 [AZD6738] + O=C(c1cc(Cc2n[nH]c(=O)c3ccccc23)ccc1F)N1CCN(C(=O)C2CC2)CC1 [Olaparib] (first compound max 10 µM, 7x7, partner max 10 µM) | 1 | 0.939 | 0.218 | 0.331 | 0.581 | 0.811 | 0.754 | 0.393 | 0.697 | 0.352 | 0.621 | 0.786 | 0.212 | 0.689 | 0.354 | 0.71 | 0.982 | 0.699 | 0.789 | 0.951
